11 compounds from patent publication US20230233569A1 (Revolution Medicines, Inc., priority 2020, published 2023) can be followed below.

Common to all, as to experiment: Ras-Raf disruption / FRET / MOA assay (BRAF RBD)
Common to all, as to type: biochemical

The target of one assay is KRAS G12D (Homo sapiens, UniProt P01116+P62937, G12D). The settings on record: Ras-Raf disruption, with Cyclophilin A; read-out: KRAS G12D FRET data IC50. The source says: (§1) Disruption of […] Ras-binding Domain (BRAF^RBD) Interaction with K-Ras by Compounds of the Invention (also Called a FRET Assay or an MOA Assay)
(§2) Note—The following protocol describes a procedure for monitoring disruption of K-Ras G12C (GMP-PNP) binding to BRAF^RBD by a compound of the invention. This protocol may also be executed substituting other Ras proteins or nucleotides, such as K-Ras G12D and K-Ras G13D.
(§3) The purpose of this biochemical assay was to measure the ability of test compounds to facilitate ternary complex formation between a nucleotide-loaded K-Ras isoform and Cyclophilin A; the resulting ternary complex disrupts binding to a BRAF^RBD construct, inhibiting K-Ras signaling through a RAF effector. Data is reported as IC50 values.
(§4) In assay buffer containing 25 mM HEPES pH 7.3, 0.002% Tween20, 0.1% BSA, 100 mM NaCl and 5 mM MgCl2, tagless Cyclophilin A, His6-K-Ras-GMPPNP, and GST-BRAF^RBD were combined in a 384-well assay plate at final concentrations of 25 μM, 12.5 nM, and 50 nM, respectively. Compound was present in plate wells as a 10-point 3-fold dilution series starting at a final concentration of 30 μM. After incubation at 25° C. for 3 hours, a mixture of anti-His Eu-W1024 and anti-GST allophycocyanin was then added to assay sample wells at final concentrations of 10 nM and 50 nM, respectively, and the reaction incubated for an additional 1.5 hours. […] Compounds that facilitate disruption of a K-Ras:RAF complex were identified as those eliciting a decrease in the TR-FRET ratio relative to DMSO control wells.

The next assay addresses KRAS G12S (Homo sapiens, UniProt P01116+P62937, G12S). The settings on record: Ras-Raf disruption, with Cyclophilin A; read-out: KRAS G12S FRET data IC50.
Excerpt: as §1, §2, §3, §4

The next assay deals with KRAS G12V (Homo sapiens, UniProt P01116+P62937, G12V). Particulars: Ras-Raf disruption, with Cyclophilin A; read-out: KRAS G12V FRET data IC50.
Excerpt: as §1, §2, §3, §4

In another assay the target is KRAS G13C (Homo sapiens, UniProt P01116+P62937, G13C). Particulars: Ras-Raf disruption, with Cyclophilin A; read-out: KRAS G13C FRET data IC50.
Excerpt: as §1, §2, §3, §4

In a further assay the target is KRAS G13D (Homo sapiens, UniProt P01116+P62937, G13D). Particulars: Ras-Raf disruption, with Cyclophilin A; read-out: KRAS G13D FRET data IC50.
Excerpt: as §1, §2, §3, §4

The target in the next assay is KRAS WT (Homo sapiens, UniProt P01116+P62937). Particulars: Ras-Raf disruption, with Cyclophilin A; read-out: KRAS WT FRET data IC50.
Excerpt: as §1, §2, §3, §4

The target in the next assay is NRAS G12C (Homo sapiens, UniProt P01111+P62937, G12C). The settings on record: NRAS G12C; read-out: NRAS G12C FRET data IC50.
Excerpt: as §1, §2, §3, §4

A further assay has as its target KRAS G12C (Homo sapiens, UniProt P01116+P62937, G12C). The settings on record: Ras-Raf disruption, with Cyclophilin A; read-out: KRAS G12C FRET data IC50.
Excerpt: as §1, §2, §3, §4
The purpose of this biochemical assay is to measure the ability of test compounds to facilitate ternary complex formation between a nucleotide-loaded Ras isoform and cyclophilin A; the resulting ternary complex disrupts binding to a BRAF^RBD construct, inhibiting Ras signaling through a RAF effector.
In assay buffer containing 25 mM HEPES pH 7.3, 0.002% Tween20, 0.1% BSA, 100 mM NaCl and 5 mM MgCl2, tagless Cyclophilin A, His6-K-Ras-GMPPNP (or other Ras variant), and GST-BRAF^RBD are combined in a 384-well assay plate at final concentrations of 25 μM, 12.5 nM and 50 nM, respectively. Compound is present in plate wells as a 10-point 3-fold dilution series starting at a final concentration of 30 μM. After incubation at 25° C. for 3 hours, a mixture of Anti-His Eu-W1024 and anti-GST allophycocyanin is then added to assay sample wells at final concentrations of 10 nM and 50 nM, respectively, and the reaction incubated for an additional 1.5 hours. […] Compounds that facilitate disruption of a Ras:RAF complex are identified as those eliciting a decrease in the TR-FRET ratio relative to DMSO control wells.

Sequence of KRAS G13C (P01116 1-169 isoform P01116-2 G13C limits assumed): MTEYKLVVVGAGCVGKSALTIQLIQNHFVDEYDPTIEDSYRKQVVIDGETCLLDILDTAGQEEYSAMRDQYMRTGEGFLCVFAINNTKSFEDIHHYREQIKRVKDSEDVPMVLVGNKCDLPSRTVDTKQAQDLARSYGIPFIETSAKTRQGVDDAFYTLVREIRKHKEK
Sequence of KRAS G13C (P62937 whole entry): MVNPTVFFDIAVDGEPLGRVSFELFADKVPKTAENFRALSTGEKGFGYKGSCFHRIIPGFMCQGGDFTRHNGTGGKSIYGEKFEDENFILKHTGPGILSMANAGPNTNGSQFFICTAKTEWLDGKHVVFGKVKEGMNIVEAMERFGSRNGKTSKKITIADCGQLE
Sequence of KRAS G12V (P01116 1-169 isoform P01116-2 G12V limits assumed): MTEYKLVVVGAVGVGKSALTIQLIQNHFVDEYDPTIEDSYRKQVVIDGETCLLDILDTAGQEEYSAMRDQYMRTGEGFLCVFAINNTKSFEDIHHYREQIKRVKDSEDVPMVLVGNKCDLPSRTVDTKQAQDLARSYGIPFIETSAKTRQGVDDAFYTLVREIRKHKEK
Sequence of KRAS G12V (P62937 whole entry): as the sequence (P62937 whole entry) above
Sequence of KRAS WT (P01116 1-169 isoform P01116-2 limits assumed): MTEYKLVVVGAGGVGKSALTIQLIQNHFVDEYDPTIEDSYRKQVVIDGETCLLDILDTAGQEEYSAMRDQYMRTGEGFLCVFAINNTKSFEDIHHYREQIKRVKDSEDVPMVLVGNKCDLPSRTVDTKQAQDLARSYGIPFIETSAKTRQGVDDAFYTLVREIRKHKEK
Sequence of KRAS WT (P62937 whole entry): as the sequence (P62937 whole entry) above
Sequence of KRAS G12D (P01116 1-169 isoform P01116-2 G12D limits assumed): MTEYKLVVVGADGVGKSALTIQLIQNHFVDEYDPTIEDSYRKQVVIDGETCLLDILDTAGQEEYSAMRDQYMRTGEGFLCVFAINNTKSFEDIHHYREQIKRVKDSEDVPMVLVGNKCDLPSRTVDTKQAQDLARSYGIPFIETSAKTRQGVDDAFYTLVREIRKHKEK
Sequence of KRAS G12D (P62937 whole entry, the tested form may be a part): as the sequence (P62937 whole entry) above
Sequence of KRAS G12C (P01116 1-169 isoform P01116-2 G12C limits assumed): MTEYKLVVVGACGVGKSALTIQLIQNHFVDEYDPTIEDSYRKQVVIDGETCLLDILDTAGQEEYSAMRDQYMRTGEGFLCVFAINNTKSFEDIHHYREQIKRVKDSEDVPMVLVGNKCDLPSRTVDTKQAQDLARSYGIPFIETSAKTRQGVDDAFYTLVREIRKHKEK
Sequence of KRAS G12C (P62937 whole entry): as the sequence (P62937 whole entry) above
Sequence of KRAS G13D (P01116 1-169 isoform P01116-2 G13D limits assumed): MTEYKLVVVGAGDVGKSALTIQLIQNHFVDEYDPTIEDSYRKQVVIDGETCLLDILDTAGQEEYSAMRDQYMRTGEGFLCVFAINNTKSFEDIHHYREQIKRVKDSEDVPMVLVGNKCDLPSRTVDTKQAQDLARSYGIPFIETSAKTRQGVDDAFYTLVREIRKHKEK
Sequence of KRAS G13D (P62937 whole entry): as the sequence (P62937 whole entry) above
Sequence of KRAS G12S (P01116 1-169 isoform P01116-2 G12S limits assumed): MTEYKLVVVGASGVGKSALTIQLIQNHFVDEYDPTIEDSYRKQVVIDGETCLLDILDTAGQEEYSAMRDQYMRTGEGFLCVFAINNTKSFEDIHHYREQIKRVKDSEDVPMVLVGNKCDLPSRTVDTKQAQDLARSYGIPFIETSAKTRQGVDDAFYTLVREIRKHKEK
Sequence of KRAS G12S (P62937 whole entry): as the sequence (P62937 whole entry) above
Sequence of NRAS G12C (P01111 whole entry G12C): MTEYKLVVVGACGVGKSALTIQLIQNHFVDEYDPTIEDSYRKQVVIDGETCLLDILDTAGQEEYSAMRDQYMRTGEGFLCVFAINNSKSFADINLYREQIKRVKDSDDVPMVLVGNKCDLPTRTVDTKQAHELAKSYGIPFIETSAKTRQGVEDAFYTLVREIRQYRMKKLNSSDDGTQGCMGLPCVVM
Sequence of NRAS G12C (P62937 whole entry): as the sequence (P62937 whole entry) above

In the case of `CCn1c(-c2cccnc2[C@H](C)OC)c2c3cc(ccc31)-c1cccc(c1)C[C@H](NC(=O)[C@H](C(C)C)N(C)C(=O)CCN=C=NCc1ccccc1OC)C(=O)N1CCC[C@H](N1)C(=O)OCC(C)(C)C2` [Example 73], the half-inhibitory concentration (IC50) (usually the midpoint of a concentration-inhibition curve) was 100 to 1000 nM at KRAS G12D; 1000 to 10000 nM on KRAS G12S; above 10000 nM at KRAS G12V; 1000 to 10000 nM on KRAS G13C; 1000 to 10000 nM at KRAS G13D; 1000 to 10000 nM at KRAS WT. Also, the 50% inhibitory concentration (IC50) on NRAS G12C and on KRAS G12C was 10 to 100 nM each time.

Turning to `CCn1c(-c2cccnc2[C@H](C)OC)c2c3cc(ccc31)-c1cccc(c1)C[C@H](NC(=O)[C@H](C(C)C)N(C)C(=O)[C@H]1CC[C@H](N=C=NCc3ccccc3OC)C1)C(=O)N1CCC[C@H](N1)C(=O)OCC(C)(C)C2` [Example 76], the concentration for half-maximal inhibition (IC50) at KRAS G12D is 1000 to 10000 nM; at KRAS G12S, above 10000 nM; on KRAS G12V, above 10000 nM; at KRAS G13C, 100 to 1000 nM; on KRAS G13D, above 10000 nM; at KRAS WT, 1000 to 10000 nM. Further, the half-maximal inhibitory concentration (IC50) on NRAS G12C and on KRAS G12C was 100 to 1000 nM throughout.

For `CCn1c(-c2cccnc2[C@H](C)OC)c2c3cc(ccc31)-c1cc(O)cc(c1)C[C@H](NC(=O)[C@H](C(C)C)N(C)C(=O)N1CCN(C(=O)[C@H]3CN3)CC1)C(=O)N1CCC[C@H](N1)C(=O)OCC(C)(C)C2` [Example 177, 4-((R)-aziridine-2-carbonyl)-N-((2S)-1-(((6^3S,4S)-1^1-ethyl-2^5-hydroxy-1^2-(2-((S)-1-methoxyethyl)pyridin-3-yl)-10,10-dimethyl-5,7-dioxo-6^1,6^2,6^3,6^4,6^5,6^6-hexahydro-1^1H-8-oxa-1(5,3)-indola-6(1,3)-pyridazina-2(1,3)-benzenacycloundecaphane-4-yl)amino)-3-methyl-1-oxobutan-2-yl)-N-methylpiperazine-1-carboxamide], the 50% inhibitory concentration (IC50) at KRAS G12D is 100 to 1000 nM; on KRAS G12S it was 10 to 100 nM; on KRAS G12V it was 10 to 100 nM; at KRAS G13C it was 10 to 100 nM; on KRAS G13D, 10 to 100 nM; at KRAS WT, 10 to 100 nM. Moreover, the IC50 at NRAS G12C and at KRAS G12C was 10 to 100 nM throughout.

With `CCn1c(-c2cnccc2COC)c2c3cc(ccc31)-c1cccc(c1)C[C@H](NC(=O)[C@H](C(C)C)N(C)C(=O)CCN=C=NCCOC)C(=O)N1CCC[C@H](N1)C(=O)OCC(C)(C)C2` [23 A and B], the 50% inhibitory concentration (IC50) on KRAS G12D was 1000 to 10000 nM; at KRAS G12S, 1000 to 10000 nM; on KRAS G12V, above 10000 nM; at KRAS G13C, 1000 to 10000 nM; on KRAS G13D, above 10000 nM; at KRAS WT, 1000 to 10000 nM. Further, the IC50 at NRAS G12C and at KRAS G12C was 10 to 100 nM each time.

With `CCn1c(-c2cccnc2[C@H](C)OC)c2c3cc(ccc31)-c1cc(O)cc(c1)C[C@H](NC(=O)[C@H](C(C)C)N(C)C(=O)[C@@H]1CN1)C(=O)N1CCC[C@H](N1)C(=O)OCC(C)(C)C2` [Example 100], the IC50 was 100 to 1000 nM on KRAS G12D; 10 to 100 nM on KRAS G12S; 10 to 100 nM at KRAS G12V; 10 to 100 nM on KRAS G13C; 10 to 100 nM at KRAS G13D; 10 to 100 nM on KRAS WT. In addition, the 50% inhibitory concentration (IC50) at NRAS G12C and on KRAS G12C was 10 to 100 nM throughout.

`CCn1c(-c2cccnc2[C@H](C)OC)c2c3cc(ccc31)-c1cc(O)cc(c1)C[C@H](NC(=O)[C@H](C1CCCC1)N1CC[C@@]3(CCN(C(=O)[C@H]4CN4)C3)C1=O)C(=O)N1CCC[C@H](N1)C(=O)OCC(C)(C)C2` [Example 174]: the IC50 fell in the range of 100 to 1000 nM on KRAS G12D; 10 to 100 nM on KRAS G12S; 10 to 100 nM at KRAS G12V; 10 to 100 nM on KRAS G13C; 10 to 100 nM on KRAS G13D; 10 to 100 nM at KRAS WT. Also, the IC50 on NRAS G12C and on KRAS G12C was below 10 nM throughout.

Turning to `CCn1c(-c2cccnc2[C@H](C)OC)c2c3cc(ccc31)-c1cc(O)cc(c1)C[C@H](NC(=O)[C@H](C(C)C)N(C)C(=O)c1ccc([C@H]3CN3)cc1)C(=O)N1CCC[C@H](N1)C(=O)OCC(C)(C)C2` [Example 145], the IC50 at KRAS G12D lay in the range of 1000 to 10000 nM; on KRAS G12S it was 100 to 1000 nM; at KRAS G12V, 100 to 1000 nM; on KRAS G13C it was 10 to 100 nM; on KRAS G13D it was 100 to 1000 nM; at KRAS WT it was 100 to 1000 nM. Also, the IC50 at NRAS G12C and at KRAS G12C was 100 to 1000 nM in each case.

In the case of `CCn1c(-c2cccnc2[C@H](C)OC)c2c3cc(ccc31)-c1cc(O)cc(c1)C[C@H](NC(=O)[C@H](C(C)C)N(C)C(=O)[C@H]1CCN(S(=O)(=O)[C@@H]3CN3C)C1)C(=O)N1CCC[C@H](N1)C(=O)OCC(C)(C)C2` (single isomer, unassigned) [Example 56], the concentration for half-maximal inhibition (IC50) is 100 to 1000 nM on KRAS G12D; 100 to 1000 nM at KRAS G12S; 100 to 1000 nM on KRAS G12V; 10 to 100 nM at KRAS G13C; 100 to 1000 nM on KRAS G13D; 100 to 1000 nM on KRAS WT. Moreover, the half-inhibitory concentration (IC50) lay within 100 to 1000 nM at NRAS G12C and 10 to 100 nM on KRAS G12C.

`CCn1c(-c2cccnc2[C@H](C)OC)c2c3cc(ccc31)-c1cc(O)cc(c1)C[C@H](NC(=O)[C@H](C(C)C)N(C)C(=O)[C@H]1CCN(C(=O)[C@H]3CN3)C1)C(=O)N1CCC[C@H](N1)C(=O)OCC(C)(C)C2` (single isomer, unassigned) [Example 43A]: the IC50 on KRAS G12D, at KRAS G12S, on KRAS G12V, on KRAS G13C, at KRAS G13D and at KRAS WT was 10 to 100 nM in each case. In addition, the IC50 at NRAS G12C and at KRAS G12C was below 10 nM throughout.

As to `CCn1c(-c2cccnc2[C@H](C)OC)c2c3cc(ccc31)-c1cccc(c1)C[C@H](NC(=O)[C@H](C(C)C)N(C)C(=O)[C@H]1C[C@H](N=C=Nc3c(C)cccc3C)C1)C(=O)N1CCC[C@H](N1)C(=O)OCC(C)(C)C2` [Example 126], the IC50 fell in the range of 1000 to 10000 nM on KRAS G12D; 100 to 1000 nM on KRAS G12S; 1000 to 10000 nM at KRAS G12V; 100 to 1000 nM on KRAS G13C; 1000 to 10000 nM on KRAS G13D; 1000 to 10000 nM on KRAS WT. The IC50 on NRAS G12C and on KRAS G12C was 100 to 1000 nM in each case.

Turning to `CCn1c(-c2cccnc2[C@H](C)OC)c2c3cc(ccc31)-c1cc(O)cc(c1)C[C@H](NC(=O)[C@H](C(C)C)N(C)C(=O)[C@H]1CCN(C(=O)[C@@H]3N[C@@H]3C3CC3)C1)C(=O)N1CCC[C@H](N1)C(=O)OCC(C)(C)C2` (atropisomer, axis not shown) [Example 198], the half-inhibitory concentration (IC50) was 10 to 100 nM on KRAS G12D; 10 to 100 nM on KRAS G12S; 100 to 1000 nM at KRAS G12V; 10 to 100 nM at KRAS G13C; 10 to 100 nM at KRAS G13D; 10 to 100 nM on KRAS WT. For the same compound, the half-maximal inhibitory concentration (IC50) at NRAS G12C and at KRAS G12C was below 10 nM each time.
